Laboratory results taken from patent US8247211B2, “Glycopeptide antibiotics” (American Cyanamid Company, priority 2001, dated 2012).
≈ marks a conversion by molar mass, not a printed value.

Assays:
Assay in all cases: In vitro antibacterial evaluation: minimum inhibitory concentration (MIC), broth dilution method
Assay type in all cases: cell-based
Staphylococcus sp. = settings: for MIC Staphylococcus aureus (ATCC 29213): strain ATCC 29213; for MIC Staphylococcus aureus (GC 1131): strain GC 1131; for MIC Staphylococcus aureus (GC 3051): strain GC 3051; for MIC Staphylococcus aureus (GC 3053): strain GC 3053; for MIC Staphylococcus aureus (GC 4541): strain GC 4541; for MIC Staphylococcus aureus (GC 4542): strain GC 4542; for MIC Staphylococcus aureus-SMITH (GC 4543): strain GC 4543; for MIC Staphylococcus aureus (GC 4544): strain GC 4544; for MIC Staphylococcus aureus (GC 4545): strain GC 4545; for MIC Staphylococcus haemolyticus (GC 4546): strain GC 4546; for MIC Coagulase Negative Staphylococcus (GC 4547): strain GC 4547; for MIC Coagulase Negative Staphylococcus (GC 4548): strain GC 4548; for MIC Coagulase Negative Staphylococcus (GC 4549): strain GC 4549; for MIC Coagulase Negative Staphylococcus (GC 4551): strain GC 4551; for MIC Coagulase Negative Staphylococcus (GC 6257): strain GC 6257
Protocol: (§1) The minimum inhibitory concentration (MIC), the lowest concentration of the antibiotic which inhibits growth of the test organism, is determined by the broth dilution method using Muller-Hinton II […] (Baltimore Biological Laboratories) following the recommendations of the National Committee for Clinical Laboratory Standards [Methods for dilution antimicrobial susceptibility tests for bacteria that grow aerobically, approved standard M7-A2, National Committee for Clinical Laboratory Standards, Villanova, Pa].
(§2) An inoculum level of 5×10^5 CFU/mL, and a range of antibiotic concentrations (64-0.06 μg/mL) is used. […] The test organisms include a spectrum of Gram-positive bacteria comprised of Staphylococcus sp., Streptococcus sp. and Enterococcus sp. These organisms include recent clinical isolates that are resistant to methicillin, penicillin and/or vancomycin.

Streptococcus sp. = settings: broth dilution, 5×10^5 CFU/mL, 18 hours at 35° C.
Protocol: as §1, §2

Escherichia coli = settings: 5×10^5 CFU/mL, 18 hours at 35° C.
Protocol: as §1, §2

Enterococcus sp. = settings: broth dilution, 5×10^5 CFU/mL, 18 hours at 35° C.
Protocol: as §1, §2

[1] = broth dilution, 18 hours at 35° C.

CCCCOC(=O)CCC1OCC2OC(OC3C(CO)OC(Oc4ccc(CC5NC(=O)C(C(C)c6ccccc6)NC(=O)CNC(=O)C(CO)NC(=O)C(C(O)C6CNC(=N)N6C6OC(CO)C(O)C(O)C6O)NC(=O)C(C(O)C6CNC(=N)N6)NC5=O)cc4)C(O)C3O)C(O)C(O)C2O1 (stereo not drawn) [Example 114, Cyclo[glycyl-β-methylphenylalanyl-O-[4-O-[4,6-O-(4-butoxy-4-oxobutylidene)hexopyranosyl]-hexopyranosyl]tyrosyl-3-(2-iminoimidazolidin-4-yl)seryl-3-(3-hexopyranosyl-2-iminoimidazolidin-4-yl)serylseryl]]
MIC Staphylococcus aureus (ATCC 29213) (Staphylococcus sp.): 2 µg/mL (≈ 1.39 µM)
MIC Staphylococcus aureus (ATCC 29213) (Staphylococcus sp.; [1]): 2 µg/mL (≈ 1.39 µM)
MIC Staphylococcus aureus (GC 1131) (Staphylococcus sp.): 2 µg/mL (≈ 1.39 µM)
MIC Staphylococcus aureus (GC 1131) (Staphylococcus sp.; [1]): 2 µg/mL (≈ 1.39 µM)
MIC Staphylococcus aureus (GC 3051) (Staphylococcus sp.): 2 µg/mL (≈ 1.39 µM)
MIC Staphylococcus aureus (GC 3051) (Staphylococcus sp.; [1]): 2 µg/mL (≈ 1.39 µM)
MIC Staphylococcus aureus (GC 3053) (Staphylococcus sp.): 2 µg/mL (≈ 1.39 µM)
MIC Staphylococcus aureus (GC 3053) (Staphylococcus sp.; [1]): 2 µg/mL (≈ 1.39 µM)
MIC Staphylococcus aureus (GC 4541) (Staphylococcus sp.): 2 µg/mL (≈ 1.39 µM)
MIC Staphylococcus aureus (GC 4541) (Staphylococcus sp.; [1]): 2 µg/mL (≈ 1.39 µM)
MIC Staphylococcus aureus (GC 4542) (Staphylococcus sp.): 1 µg/mL (≈ 0.697 µM)
MIC Staphylococcus aureus (GC 4542) (Staphylococcus sp.; [1]): 1 µg/mL (≈ 0.697 µM)
MIC Staphylococcus aureus-SMITH (GC 4543) (Staphylococcus sp.; 18 hours at 35° C.): 2 µg/mL (≈ 1.39 µM)
MIC Staphylococcus aureus-SMITH (GC 4543) (Staphylococcus sp.; [1]): 2 µg/mL (≈ 1.39 µM)
MIC Staphylococcus aureus (GC 4544) (Staphylococcus sp.): 2 µg/mL (≈ 1.39 µM)
MIC Staphylococcus aureus (GC 4544) (Staphylococcus sp.; [1]): 2 µg/mL (≈ 1.39 µM)
MIC Staphylococcus aureus (GC 4545) (Staphylococcus sp.): 2 µg/mL (≈ 1.39 µM)
MIC Staphylococcus aureus (GC 4545) (Staphylococcus sp.; [1]): 2 µg/mL (≈ 1.39 µM)
MIC Staphylococcus haemolyticus (GC 4546) (Staphylococcus sp.): 1 µg/mL (≈ 0.697 µM)
MIC Staphylococcus haemolyticus (GC 4546) (Staphylococcus sp.; [1]): 1 µg/mL (≈ 0.697 µM)
MIC Coagulase Negative Staphylococcus (GC 4547) (Staphylococcus sp.): 2 µg/mL (≈ 1.39 µM)
MIC Coagulase Negative Staphylococcus (GC 4547) (Staphylococcus sp.; [1]): 2 µg/mL (≈ 1.39 µM)
MIC Coagulase Negative Staphylococcus (GC 4548) (Staphylococcus sp.): 1 µg/mL (≈ 0.697 µM)
MIC Coagulase Negative Staphylococcus (GC 4548) (Staphylococcus sp.; [1]): 1 µg/mL (≈ 0.697 µM)
MIC Coagulase Negative Staphylococcus (GC 4549) (Staphylococcus sp.): 2 µg/mL (≈ 1.39 µM)
MIC Coagulase Negative Staphylococcus (GC 4549) (Staphylococcus sp.; [1]): 2 µg/mL (≈ 1.39 µM)
MIC Coagulase Negative Staphylococcus (GC 4551) (Staphylococcus sp.): 2 µg/mL (≈ 1.39 µM)
MIC Coagulase Negative Staphylococcus (GC 4551) (Staphylococcus sp.; [1]): 2 µg/mL (≈ 1.39 µM)
MIC Coagulase Negative Staphylococcus (GC 6257) (Staphylococcus sp.): 1 µg/mL (≈ 0.697 µM)
MIC Coagulase Negative Staphylococcus (GC 6257) (Staphylococcus sp.; [1]): 1 µg/mL (≈ 0.697 µM)
MIC Streptococcus agalactiae (GC 4564) (Streptococcus sp.): 0.5 µg/mL (≈ 0.348 µM)
MIC Streptococcus pneumoniae (GC 1894) (Streptococcus sp.): <0.06 µg/mL
MIC Streptococcus pneumoniae (GC 4565) (Streptococcus sp.): 0.25 µg/mL (≈ 0.174 µM)
MIC Streptococcus pneumonine (ATCC 6301) (Streptococcus sp.): 0.12 µg/mL (≈ 0.0836 µM)
MIC Streptococcus pyogenes (GC 4563) (Streptococcus sp.): 0.5 µg/mL (≈ 0.348 µM)
MIC Escherichia coli (ATCC 25922) (Escherichia coli): 64 µg/mL (≈ 44.6 µM)
MIC Escherichia coli (GC 4559) (Escherichia coli): 64 µg/mL (≈ 44.6 µM)
MIC Escherichia coli (GC 4560) (Escherichia coli): 1 µg/mL (≈ 0.697 µM)
MIC Enterococccus avium (GC 4558) (Enterococcus sp.): 8 µg/mL (≈ 5.57 µM)
MIC Enterococccus faecalis (ATCC 29212) (Enterococcus sp.): 4 µg/mL (≈ 2.79 µM)
MIC Enterococccus faecalis (GC 2691) (Enterococcus sp.): 4 µg/mL (≈ 2.79 µM)
MIC Enterococccus faecalis (GC 3059) (Enterococcus sp.): 8 µg/mL (≈ 5.57 µM)
MIC Enterococccus faecalis (GC 4552) (Enterococcus sp.): 4 µg/mL (≈ 2.79 µM)
MIC Enterococccus faecalis (GC 4553) (Enterococcus sp.): 8 µg/mL (≈ 5.57 µM)
MIC Enterococccus faecalis (GC 4554) (Enterococcus sp.): 4 µg/mL (≈ 2.79 µM)
MIC Enterococccus faecalis (GC 6189) (Enterococcus sp.): 4 µg/mL (≈ 2.79 µM)
MIC Enterococccus faecium (GC 2243) (Enterococcus sp.): 4 µg/mL (≈ 2.79 µM)
MIC Enterococccus faecium (GC 4556) (Enterococcus sp.): 4 µg/mL (≈ 2.79 µM)
MIC Enterococccus faecium (GC 4557) (Enterococcus sp.): 2 µg/mL (≈ 1.39 µM)
MIC Enterococcus faecalis (GC 2242) (Enterococcus sp.): 4 µg/mL (≈ 2.79 µM)

CC(c1ccccc1)C1NC(=O)CNC(=O)C(CO)NC(=O)C(C(O)C2CNC(=N)N2C2OC(CO)C(O)C(O)C2O)NC(=O)C(C(O)C2CNC(=N)N2)NC(=O)C(Cc2ccc(OC3OC(CO)C(OC4OC5COC(Cc6ccc(Br)cc6)OC5C(O)C4O)C(O)C3O)cc2)NC1=O (stereo not drawn) [Example 118, Cyclo[glycyl-β-methylphenylalanyl-O-[4-O-[4,6-O-(4-bromophenethylidene)hexopyranosyl]-hexopyranosyl]tyrosyl-3-(2-iminoimidazolidin-4-yl)seryl-3-(3-hexopyranosyl-2-iminoimidazolidin-4-yl)serylseryl]]
MIC Staphylococcus aureus (ATCC 29213) (Staphylococcus sp.): <0.5 to 1 µg/mL
MIC Staphylococcus aureus (ATCC 29213) (Staphylococcus sp.; [1]): <0.5 to 1 µg/mL
MIC Staphylococcus aureus (GC 1131) (Staphylococcus sp.): <0.5 to 1 µg/mL
MIC Staphylococcus aureus (GC 1131) (Staphylococcus sp.; [1]): <0.5 to 1 µg/mL
MIC Staphylococcus aureus (GC 3051) (Staphylococcus sp.): <0.5 to 1 µg/mL
MIC Staphylococcus aureus (GC 3051) (Staphylococcus sp.; [1]): <0.5 to 1 µg/mL
MIC Staphylococcus aureus (GC 3053) (Staphylococcus sp.): 1 µg/mL (≈ 0.677 µM)
MIC Staphylococcus aureus (GC 3053) (Staphylococcus sp.; [1]): 1 µg/mL (≈ 0.677 µM)
MIC Staphylococcus aureus (GC 4541) (Staphylococcus sp.): <0.5 to 1 µg/mL
MIC Staphylococcus aureus (GC 4541) (Staphylococcus sp.; [1]): <0.5 to 1 µg/mL
MIC Staphylococcus aureus (GC 4542) (Staphylococcus sp.): <0.5 to 1 µg/mL
MIC Staphylococcus aureus (GC 4542) (Staphylococcus sp.; [1]): <0.5 to 1 µg/mL
MIC Staphylococcus aureus-SMITH (GC 4543) (Staphylococcus sp.; 18 hours at 35° C.): <0.5 to 1 µg/mL
MIC Staphylococcus aureus-SMITH (GC 4543) (Staphylococcus sp.; [1]): <0.5 to 1 µg/mL
MIC Staphylococcus aureus (GC 4544) (Staphylococcus sp.): <0.5 to 1 µg/mL
MIC Staphylococcus aureus (GC 4544) (Staphylococcus sp.; [1]): <0.5 to 1 µg/mL
MIC Staphylococcus aureus (GC 4545) (Staphylococcus sp.): <0.5 to 1 µg/mL
MIC Staphylococcus aureus (GC 4545) (Staphylococcus sp.; [1]): <0.5 to 1 µg/mL
MIC Coagulase Negative Staphylococcus (GC 4547) (Staphylococcus sp.): <0.5 to 1 µg/mL
MIC Coagulase Negative Staphylococcus (GC 4547) (Staphylococcus sp.; [1]): <0.5 to 1 µg/mL
MIC Coagulase Negative Staphylococcus (GC 4551) (Staphylococcus sp.): <0.5 to 1 µg/mL
MIC Coagulase Negative Staphylococcus (GC 4551) (Staphylococcus sp.; [1]): <0.5 to 1 µg/mL
MIC Streptococcus agalactiae (GC 4564) (Streptococcus sp.): <0.06 µg/mL
MIC Streptococcus pneumoniae (GC 1894) (Streptococcus sp.): <0.06 µg/mL
MIC Streptococcus pneumoniae (GC 4565) (Streptococcus sp.): <0.06 µg/mL
MIC Streptococcus pneumonine (ATCC 6301) (Streptococcus sp.): <0.06 µg/mL
MIC Streptococcus pyogenes (GC 4563) (Streptococcus sp.): <0.06 µg/mL
MIC Escherichia coli (GC 4559) (Escherichia coli): 16 µg/mL (≈ 10.8 µM)
MIC Escherichia coli (GC 4560) (Escherichia coli): 1 µg/mL (≈ 0.677 µM)
MIC Enterococccus avium (GC 4558) (Enterococcus sp.): 1 to 2 µg/mL
MIC Enterococccus faecalis (ATCC 29212) (Enterococcus sp.): 1 to 2 µg/mL
MIC Enterococccus faecalis (GC 2691) (Enterococcus sp.): 1 to 2 µg/mL
MIC Enterococccus faecalis (GC 3059) (Enterococcus sp.): 1 to 2 µg/mL
MIC Enterococccus faecalis (GC 4552) (Enterococcus sp.): 1 to 2 µg/mL
MIC Enterococccus faecalis (GC 4553) (Enterococcus sp.): 1 to 2 µg/mL
MIC Enterococccus faecalis (GC 4554) (Enterococcus sp.): 1 to 2 µg/mL
MIC Enterococccus faecalis (GC 6189) (Enterococcus sp.): 1 to 2 µg/mL
MIC Enterococccus faecium (GC 2243) (Enterococcus sp.): 1 µg/mL (≈ 0.677 µM)
MIC Enterococccus faecium (GC 4556) (Enterococcus sp.): <0.5 to 1 µg/mL
MIC Enterococccus faecium (GC 4557) (Enterococcus sp.): <0.5 to 2 µg/mL
MIC Enterococcus faecalis (GC 2242) (Enterococcus sp.): <0.5 to 2 µg/mL
